From patent US11214803B2, “Modulators of YAP1 expression” (Ionis Pharmaceuticals, Inc., priority 2019, dated 2022)
“And” between values parts separate entries of the source, which are not always exact repeats. Identical values can stand only once. Strand notation (5' to 3'): a small letter for the sugar, then the base; units joined by * are phosphorothioate-linked, units joined directly phosphodiester-linked; [ ] holds rarer units or linkages, { } end groups; capitals alone tell only the bases. e = 2'-O-(2-methoxyethyl) (MOE); k = constrained ethyl (cEt); [5mC] = 5-methylcytosine; d = 2'-deoxy (DNA)

Experiments:
Yap1 mRNA [1] = experiment: Dose-dependent inhibition of human Yap1 in SNU-449 cells (Example 9, RTS36584); type: cell-based; details: free uptake; for % UTC (Yap1 mRNA): approximately 48 hours; for IC50: linear regression on a log/linear plot
Summary of the method: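 Read-out was Yap1 mRNA (primer-probe RTS36584) normalised to total RNA by RIBOGREEN, given as % of untreated cells, with IC50 fitted by linear regression of log/linear data. Oligonucleotides were dosed by free uptake to SNU-449 cells, 10,000/well, for ~48 h.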

[2] = Tolerability in CD-1 mice, plasma chemistry markers (Example 15); type: in vivo; details: male CD-1 mice, 50 mg/kg s.c. twice a week for four weeks (8 treatments), day 26
Method: CD-1 mice were treated with modified oligonucleotides selected from studies described above and evaluated for changes in the levels of various plasma chemistry markers.
(§1) Groups of four male CD-1 mice at 4-5 weeks of age (obtained from Charles River) were injected subcutaneously twice a week for four weeks (for a total of 8 treatments) with 50 mg/kg of modified oligonucleotides. One group of male CD-1 mice was injected with PBS. Mice were euthanized on day 26 post start of treatment (24 hrs following the final administration).

Yap1 mRNA [3] = experiment: Inhibition of human Yap1 mRNA in SNU449 hepatocellular carcinoma xenograft tumors (Example 26); type: in vivo; details: SNU449 xenografts in NSG mice, 50 mg/kg twice weekly for five days, relative to PBS treated animals
Method: A SNU449 hepatocellular carcinoma xenograft tumor model was used to evaluate activity of modified oligonucleotides targeted to human Yap1. Ten million SNU449 cells in 30% matrigel were implanted subcutaneously into the flanks of female NOD Cg-Prkdcscid ll2rgtm1Wjl/SzJ (NSG) mice (from Jackson Laboratory) at 4-6 weeks of age. When tumors reached an average volume of 100 mm^3, approximately two weeks post-implantation, groups of four mice each were administered at 50 mg/kg twice weekly with modified oligonucleotides for five days. Tumors were collected and tested for Yap1 mRNA knockdown by RT-qPCR. Yap1 mRNA levels were measured as previously described using the Human Yap1 primer-probe set RTS4814. Yap1 mRNA levels were normalized to actin-beta content, as measured by primer probe set RTS5002. Results are presented in the tables below as percent control of the amount of Yap1 mRNA relative to PBS treated animals (% control).

Yap1 mRNA [4] = experiment: Dose-dependent inhibition of human Yap1 in A-431 cells (Example 6, 5,000 cells per well, RTS4814); type: cell-based; details: Table 53, A-431 cells
Summary of the method: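 A-431 cells (5,000/well) took up oligonucleotides by free uptake at various doses for about 48 h. Yap1 mRNA was measured by RT-PCR (RTS4814), normalised to RIBOGREEN total RNA and expressed as % untreated control; IC50 by linear regression on a log/linear plot.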

Yap1 mRNA [5] = experiment: Dose-dependent inhibition of human Yap1 in A-431 cells (Example 7, 10,000 cells per well, RTS36584); type: cell-based; details: free uptake
Summary of the method: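 Yap1 mRNA was expressed as percent of untreated control after normalization to total RNA (RIBOGREEN), and IC50 was derived by log/linear linear regression. The read-out used primer-probe set RTS36584 roughly 48 hours after free-uptake dosing of oligonucleotides into A-431 cells (10,000 cells/well).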

[6] = Tolerability in CD-1 mice, body and organ weights (Example 15); type: in vivo; details: male CD-1 mice, 50 mg/kg s.c. twice a week for four weeks (8 treatments), end of study (day 26)
Method: as §1
(§2) Body weights of CD-1 mice were measured at the end of the study, and the average body weight for each group is presented in the table below. Modified oligonucleotides that caused any changes in organ weights outside the expected range for modified oligonucleotides were excluded from further studies.

[7] = Tolerability in Balb/c mice, body and organ weights (Example 11); type: in vivo; details: 50 mg/kg subcutaneously twice a week for four weeks, end of study
Method: as §1, with “of” for “of four”, “Balb/c” for “CD-1”, “4-6” for “4-5”, “Taconic)” for “Charles River)”, “hours” for “hrs”
as §2, with “Balb/c” for “CD-1”

[8] = Tolerability in Balb/c mice, plasma chemistry markers (Example 11); type: in vivo; details: 50 mg/kg subcutaneously twice a week for four weeks
Method: Balb/c mice were treated with modified oligonucleotides selected from studies described above and evaluated for changes in the levels of various plasma chemistry markers.
as §1, with “of” for “of four”, “Balb/c” for “CD-1”, “4-6” for “4-5”, “Taconic)” for “Charles River)”, “hours” for “hrs”

1074461 (kG*kA*kA*dA*dT*dT*dG*dT*d[5mC]*dT*d[5mC]*dA*dT*kG*k[5mC]*k[5mC]) [compound 1074461]
% UTC (Yap1 mRNA) (Yap1 mRNA [1]; 31.3 nM): 76 % UTC
% UTC (Yap1 mRNA) (Yap1 mRNA [1]; 125.0 nM): 37 % UTC
% UTC (Yap1 mRNA) (Yap1 mRNA [1]; 500.0 nM): 15 % UTC
% UTC (Yap1 mRNA) (Yap1 mRNA [1]; 2000.00 nM): 5 % UTC
IC50 (Yap1 mRNA [1]): 100 nM
ALB [2]: 2.2 g/dL
ALT [2]: 1563 U/L
AST [2]: 865 U/L

1198641 (kA*kT*dT*dA*dG*dA*dG*dT*dA*dT*dG*dT*kG*eG*k[5mC]*eA; antisense) [compound 1198641]
% UTC (Yap1 mRNA) (Yap1 mRNA [1]; 31.3 nM): 55 % UTC
% UTC (Yap1 mRNA) (Yap1 mRNA [1]; 125.0 nM): 29 % UTC
% UTC (Yap1 mRNA) (Yap1 mRNA [1]; 500.0 nM): 11 % UTC
% UTC (Yap1 mRNA) (Yap1 mRNA [1]; 2000.00 nM): 3 % UTC
IC50 (Yap1 mRNA [1]): 30 nM
Yap1 mRNA in tumors, % control (Yap1 mRNA [3]): 68 % control

1198673 (kG*kA*dT*dT*dT*dA*dG*dG*dA*dT*dG*d[5mC]*kA*eT*kG*eG; antisense) [compound 1198673]
% UTC (Yap1 mRNA) (Yap1 mRNA [1]; 31.3 nM): 51 % UTC
% UTC (Yap1 mRNA) (Yap1 mRNA [1]; 125.0 nM): 26 % UTC
% UTC (Yap1 mRNA) (Yap1 mRNA [1]; 500.0 nM): 8 % UTC
% UTC (Yap1 mRNA) (Yap1 mRNA [1]; 2000.00 nM): 3 % UTC
IC50 (Yap1 mRNA [1]): < 30 nM
Yap1 mRNA in tumors, % control (Yap1 mRNA [3]): 52 % control

715483 (k[5mC]*kT*k[5mC]*dT*dT*dT*dG*dG*dA*dA*dA*d[5mC]*d[5mC]*kA*kT*kT) [compound 715483]
IC50 (Yap1 mRNA [4]; Yap1 mRNA, linear regression on a log/linear plot): 1100 nM
% UTC 148 nM (Yap1 mRNA [4]; free uptake, 148 nM, approximately 48 hours, RTS4814): 82 % UTC
% UTC 444 nM (Yap1 mRNA [4]; free uptake, 444 nM, approximately 48 hours, RTS4814): 58 % UTC
% UTC 1333 nM (Yap1 mRNA [4]; free uptake, 1333 nM, approximately 48 hours, RTS4814): 43 % UTC
% UTC 4000 nM (Yap1 mRNA [4]; free uptake, 4000 nM, approximately 48 hours, RTS4814): 35 % UTC
Yap1 mRNA, % UTC (Yap1 mRNA [5]; 15.6 nM, A-431 cells, 10,000 cells per well, approximately 48 hours): 88 % UTC and 87 % UTC and 77 % UTC
Yap1 mRNA, % UTC (Yap1 mRNA [5]; 62.5 nM, A-431 cells, 10,000 cells per well, approximately 48 hours): 40 % UTC and 45 % UTC and 36 % UTC
Yap1 mRNA, % UTC (Yap1 mRNA [5]; 4000.00 nM, A-431 cells, 10,000 cells per well, approximately 48 hours): 4 % UTC and 3 % UTC
Yap1 mRNA, % UTC (Yap1 mRNA [5]; Table 56, 15.6 nM, A-431 cells 10,000 cells per well, 48 hours): 78 % UTC
Yap1 mRNA, % UTC (Yap1 mRNA [5]; Table 56, 62.5 nM, A-431 cells 10,000 cells per well, 48 hours): 38 % UTC
Yap1 mRNA, % UTC (Yap1 mRNA [5]; Table 56, 4000.00 nM, A-431 cells 10,000 cells per well, 48 hours): 6 % UTC
IC50 (Yap1 mRNA [5]; Table 56, A-431 cells 10,000 cells per well): 50 nM
Yap1 mRNA, % UTC (Yap1 mRNA [5]; Table 57, 15.6 nM, A-431 cells 10,000 cells per well, 48 hours): 79 % UTC
Yap1 mRNA, % UTC (Yap1 mRNA [5]; Table 57, 62.5 nM, A-431 cells 10,000 cells per well, 48 hours): 45 % UTC
Yap1 mRNA, % UTC (Yap1 mRNA [5]; Table 57, 4000.00 nM, A-431 cells 10,000 cells per well, 48 hours): 4 % UTC
IC50 (Yap1 mRNA [5]; Table 57, A-431 cells 10,000 cells per well): 100 nM
Yap1 mRNA, % UTC (Yap1 mRNA [5]; Table 58, 15.6 nM, A-431 cells 10,000 cells per well, 48 hours): 84 % UTC
Yap1 mRNA, % UTC (Yap1 mRNA [5]; Table 58, 62.5 nM, A-431 cells 10,000 cells per well, 48 hours): 44 % UTC
Yap1 mRNA, % UTC (Yap1 mRNA [5]; Table 58, 4000.00 nM, A-431 cells 10,000 cells per well, 48 hours): 5 % UTC
IC50 (Yap1 mRNA [5]; Table 58, A-431 cells 10,000 cells per well): 100 nM
Yap1 mRNA, % UTC (Yap1 mRNA [5]; Table 59, 15.6 nM, A-431 cells 10,000 cells per well, 48 hours): 83 % UTC
Yap1 mRNA, % UTC (Yap1 mRNA [5]; Table 59, 62.5 nM, A-431 cells 10,000 cells per well, 48 hours): 44 % UTC
Yap1 mRNA, % UTC (Yap1 mRNA [5]; Table 59, 4000.00 nM, A-431 cells 10,000 cells per well, 48 hours): 4 % UTC
IC50 (Yap1 mRNA [5]; Table 59, A-431 cells 10,000 cells per well): 100 nM
Yap1 mRNA, % UTC (Yap1 mRNA [5]; Table 60, 15.6 nM, A-431 cells 10,000 cells per well, 48 hours): 79 % UTC
Yap1 mRNA, % UTC (Yap1 mRNA [5]; Table 60, 62.5 nM, A-431 cells 10,000 cells per well, 48 hours): 40 % UTC
Yap1 mRNA, % UTC (Yap1 mRNA [5]; Table 60, 4000.00 nM, A-431 cells 10,000 cells per well, 48 hours): 3 % UTC
IC50 (Yap1 mRNA [5]; Table 60, A-431 cells 10,000 cells per well): 100 nM
Yap1 mRNA, % UTC (Yap1 mRNA [5]; Table 61, 15.6 nM, A-431 cells 10,000 cells per well, 48 hours): 80 % UTC
Yap1 mRNA, % UTC (Yap1 mRNA [5]; Table 61, 62.5 nM, A-431 cells 10,000 cells per well, 48 hours): 38 % UTC
Yap1 mRNA, % UTC (Yap1 mRNA [5]; Table 61, 4000.00 nM, A-431 cells 10,000 cells per well, 48 hours): 4 % UTC
IC50 (Yap1 mRNA [5]; Table 61, A-431 cells 10,000 cells per well): 100 nM
Kidney weight [6]: 0.64 g
Liver weight [6]: 2.26 g
Spleen weight [6]: 0.21 g
body weight [6]: 40 g
Kidney weight [7]: 0.43 g
Liver weight [7]: 1.56 g
Spleen weight [7]: 0.12 g
body weight [7]: 25 g
ALB [2]: 2.2 g/dL
ALT [2]: 79 U/L
AST [2]: 125 U/L
ALT [8]: 62 U/L
AST [8]: 70 U/L
BUN [8]: 16 mg/dL
TBIL [8]: 0.17 mg/dL
